In patent US20120190017A1, “POLYMORPHISMS IN THE HUMAN GENE FOR THE MULTIDRUG RESISTANCE-ASSOCIATED PROTEIN 1 (MRP-1) AND THEIR USE IN DIAGNOSTIC AND THERAPEUTIC APPLICATIONS” (priority 2001, published 2012):

System: MRP-1 mRNA
Assay: MRP-1 mRNA content in duodenal biopsies from healthy volunteers before and after application of rifampicin
Type: in vivo, human
Details: before (A) vs after (B) application of rifampicin, paired T-test p<0.001
Text: FIG. 3: Diagram 1A and 1B represent the correlation of the genotype (wt/wt: 1; wt/mut and mut/mut:2) with MRP-1 mRNA content in duodenal biopsies from healthy volunteers derived from two independent experiments, before (A) and after (B) application of rifampicin. The p-value of the statistical evaluation (Kruskal-Wallis-Test), which result in a genotyp/phenotype correlation is p=0.086. […] Thus, the differences in the MRP-1 mRNA content are based on interindividual differences. The statistical analyses were performed using the computer program SPSS 10.0 (SPSS, Chicago, USA).
Functional polymorphisms in the MRP-1 gene (see tables in examples 2 and 4) affect the transport activity and subsequently the levels of drugs which are substrates of MRP-1. […] Three different patient collectives, two show side effects during drug therapy and one for which the MRP-1 mRNA levels had been defined, were analyzed to determine whether MRP-1 polymorphisms correlate with transporter activity and subsequently with alterations in drug activities and side effects. […] For this purpose, the 3 collectives (collective 1: samples with nephrotoxicities after cisplatin therapy; collective 2: liver and kidney side effects; collective 3: samples with defined high or low MRP-1 mRNA levels) were screened for all MRP-1 gene fragments, in which the new SNP's could be detected. […]

Compound: CO[C@H]1/C=C/O[C@@]2(C)Oc3c(C)c(O)c4c(O)c(c(/C=N/N5CCN(C)CC5)c(O)c4c3C2=O)NC(=O)/C(C)=C\C=C\[C@H](C)[C@H](O)[C@@H](C)[C@@H](O)[C@@H](C)[C@H](OC(C)=O)[C@@H]1C [rifampicin]
- effect on MRP-1 mRNA expression: no effect
